Experimental data from patent US12162890B2 (Novartis AG, priority 2015, dated 2024).

Biological target: HEK293 cells with stable expression of the GRIN1 gene and tetracycline-inducible expression of the GRIN2B gene (NMDA receptor, NR2B) (Homo sapiens, UniProt Q13224)
Experiment: Fluo-8 Ca2+ flux assay: reversal of Ro 25-6981-mediated suppression of the Ca2+ response to co-agonist (glutamate/glycine); further: test concentration or dose not given here
Assay type: cell-based
Conditions: reversal of the Ro 25-6981 suppression of the Ca2+ response to co-agonist (glutamate/glycine)

Sequence of HEK293 cells with stable expression of the GRIN1 gene and tetracycline-inducible expression of the GRIN2B gene (NMDA receptor, NR2B) (Q13224 27-1484, other chains not shown): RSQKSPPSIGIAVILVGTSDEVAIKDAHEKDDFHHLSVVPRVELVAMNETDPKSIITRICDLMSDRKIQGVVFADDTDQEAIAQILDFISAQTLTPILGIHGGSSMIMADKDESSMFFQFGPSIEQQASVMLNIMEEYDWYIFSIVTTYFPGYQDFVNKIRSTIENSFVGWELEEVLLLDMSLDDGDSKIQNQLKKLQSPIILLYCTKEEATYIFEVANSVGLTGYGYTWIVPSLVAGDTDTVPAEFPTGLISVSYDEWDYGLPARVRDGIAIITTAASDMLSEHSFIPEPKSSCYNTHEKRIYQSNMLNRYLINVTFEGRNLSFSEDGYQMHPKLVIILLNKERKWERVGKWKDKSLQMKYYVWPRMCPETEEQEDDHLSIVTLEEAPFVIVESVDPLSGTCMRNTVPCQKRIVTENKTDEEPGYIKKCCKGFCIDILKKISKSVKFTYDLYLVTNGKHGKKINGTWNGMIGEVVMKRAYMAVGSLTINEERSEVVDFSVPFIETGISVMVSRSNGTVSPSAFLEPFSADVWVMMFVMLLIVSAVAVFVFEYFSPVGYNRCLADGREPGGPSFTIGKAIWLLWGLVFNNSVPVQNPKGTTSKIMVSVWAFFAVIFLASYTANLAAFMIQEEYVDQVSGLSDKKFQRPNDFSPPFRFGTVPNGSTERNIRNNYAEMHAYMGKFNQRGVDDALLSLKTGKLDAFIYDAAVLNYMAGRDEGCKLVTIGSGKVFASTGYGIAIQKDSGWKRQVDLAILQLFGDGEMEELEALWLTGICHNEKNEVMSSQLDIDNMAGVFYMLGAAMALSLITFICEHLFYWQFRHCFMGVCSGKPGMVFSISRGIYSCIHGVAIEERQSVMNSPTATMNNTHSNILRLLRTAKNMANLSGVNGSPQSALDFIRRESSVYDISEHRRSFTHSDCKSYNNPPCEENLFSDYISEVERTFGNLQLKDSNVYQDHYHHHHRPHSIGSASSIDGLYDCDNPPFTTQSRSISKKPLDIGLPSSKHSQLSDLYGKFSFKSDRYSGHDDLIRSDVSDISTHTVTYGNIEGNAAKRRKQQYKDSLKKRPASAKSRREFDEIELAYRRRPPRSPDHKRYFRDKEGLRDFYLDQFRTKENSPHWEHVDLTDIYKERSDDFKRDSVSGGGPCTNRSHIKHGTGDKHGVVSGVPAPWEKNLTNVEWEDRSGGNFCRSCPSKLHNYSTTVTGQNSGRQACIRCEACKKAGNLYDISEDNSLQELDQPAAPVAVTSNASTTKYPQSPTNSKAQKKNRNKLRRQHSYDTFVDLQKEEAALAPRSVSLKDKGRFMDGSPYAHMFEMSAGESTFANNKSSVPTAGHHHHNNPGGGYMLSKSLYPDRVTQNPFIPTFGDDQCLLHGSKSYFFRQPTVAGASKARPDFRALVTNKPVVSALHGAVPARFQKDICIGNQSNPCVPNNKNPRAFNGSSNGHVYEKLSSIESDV

SMILES	Response Recovered (%)
O=C(Cn1ccc2scc(-c3ccc(F)c(C(F)(F)F)c3)c2c1=O)N1CC(F)(CF)C1 [Example 83, 5-(2-(3-fluoro-3-(fluoromethyl)azetidin-1-yl)-2-oxoethyl)-3-(4-fluoro-3-(trifluoromethyl)phen-yl)thieno[3,2-c]pyridin-4(5H)-one]	140
O=C(Cn1ccc2scc(-c3ccc(F)c(Cl)c3)c2c1=O)N1CCCC1 [Example 3, 3-(3-chloro-4-fluorophenyl)-5-(2-oxo-2-(pyrrolidin-1-yl)ethyl)thieno[3,2-c]pyridin-4(5H)-one]	60
O=C(Cn1ccn2c(C3CC3)nc(-c3ccc(Cl)c(Cl)c3)c2c1=O)N1CCC(F)C1 (stereo not drawn) [Example 433, 3-cyclopropyl-1-(3,4-dichlorophenyl)-7-(2-(3-fluoropyrrolidin-1-yl)-2-oxoethyl)imidazo[1,5-a]pyrazin-8(7H)-one]	68
O=C(Cn1ccc2cccc(-c3ccc(Cl)c(C(F)(F)F)c3)c2c1=O)N1CC(F)(F)C1 [Example 301, 8-(4-chloro-3-(trifluoromethyl)phenyl)-2-(2-(3,3-difluoroazetidin-1-yl)-2-oxoethyl)isoquinolin-1(2H)-one]	28
CCn1cc(-c2ccc(Cl)c(F)c2)c2c(=O)n(CC(=O)N3CC(F)(F)C3)cnc21 [Example 171, 5-(4-chloro-3-fluorophenyl)-3-(2-(3,3-difluoroazetidin-1-yl)-2-oxoethyl)-7-ethyl-3H-pyrrolo[2,3-d]pyrimidin-4(7H)-one]	15
CN(C)Cc1cn(CC(=O)N2CCC(F)C2)c(=O)c2c(-c3ccc(Cl)c(Cl)c3)csc12 (stereo not drawn) [Example 123, 3-(3,4-dichlorophenyl)-7-((dimethylamino)methyl)-5-(2-(3-fluoropyrrolidin-1-yl)-2-oxoethyl)thieno[3,2-c]pyridin-4(5H)-one]	70
CCOCn1cc(-c2ccc(F)c(C(F)(F)F)c2)c2c(=O)n(CC(=O)N3CCC(F)C3)ccc21 (stereo not drawn) [Example 241, 1-(ethoxymethyl)-3-(4-fluoro-3-(trifluoromethyl)phenyl)-5-(2-(3-fluoropyrrolidin-1-yl)-2-oxoethyl)-1H-pyrrolo[3,2-c]pyridin-4(5H)-one]	61
CC1(F)CN(C(=O)Cn2ccc3scc(-c4ccc(F)c(F)c4)c3c2=O)C1 [Example 20, 3-(3,4-difluorophenyl)-5-(2-(3-fluoro-3-methylazetidin-1-yl)-2-oxoethyl)thieno[3,2-c]pyridin-4(5H)-one]	41
O=C(Cn1cnc2c(c(-c3ccc(Cl)c(F)c3)cn2CCF)c1=O)N1CCCC1 [Example 173, 5-(4-chloro-3-fluorophenyl)-7-(2-fluoroethyl)-3-(2-oxo-2-(pyrrolidin-1-yl)ethyl)-3H-pyrrolo[2,3-d]pyrimidin-4(7H)-one]	32
O=C(Cn1cnc2onc(-c3ccc(Cl)cc3)c2c1=O)N1CCC(F)C1 (stereo not drawn) [Example 386, 3-(4-chlorophenyl)-5-(2-(3-fluoropyrrolidin-1-yl)-2-oxoethyl)isoxazolo[5,4-d]pyrimidin-4(5H)-one]	4
CC1CN(C(=O)Cn2ccc3scc(-c4ccc(Cl)c(Cl)c4)c3c2=O)C1 [Example 59, 3-(3,4-dichlorophenyl)-5-(2-(3-methylazetidin-1-yl)-2-oxoethyl)thieno[3,2-c]pyridin-4(5H)-one]	110
CC1(F)CN(C(=O)Cn2ccc3scc(-c4cnc(Cl)c(Cl)c4)c3c2=O)C1 [Example 76, 3-(5,6-dichloropyridin-3-yl)-5-(2-(3-fluoro-3-methylazetidin-1-yl)-2-oxoethyl)thieno[3,2-c]pyridin-4(5H)-one]	77
Cn1cc(-c2ccc(F)c(Cl)c2)c2c(=O)n(CC(=O)N3CCC(F)C3)ccc21 (stereo not drawn) [Example 247, 3-(3-chloro-4-fluorophenyl)-5-(2-(3-fluoropyrrolidin-1-yl)-2-oxoethyl)-1-methyl-1H-pyrrolo[3,2-c]pyridin-4(5H)-one]	51
O=C(Cn1ccc2scc(-c3ccc(F)c(C(F)(F)F)c3)c2c1=O)N1CC2(CC2)C1 [Example 80, 3-(4-fluoro-3-(trifluoromethyl)phen-yl)-5-(2-oxo-2-(5-azaspiro[2.3]hexan-5-yl)ethyl)thieno[3,2-c]pyridin-4(5H)-one]	64
CC1(F)CN(C(=O)Cn2ccn3ccc(-c4cnc(Cl)c(Cl)c4)c3c2=O)C1 [Example 404, 8-(5,6-dichloropyridin-3-yl)-2-(2-(3-fluoro-3-methylazetidin-1-yl)-2-oxoethyl)pyrrolo[1,2-a]pyrazin-1(2H)-one]	58
CCC1(F)CN(C(=O)Cn2ccc3scc(-c4cnc(C)c(Cl)c4)c3c2=O)C1 [Example 91, 3-(5-chloro-6-methylpyridin-3-yl)-5-(2-(3-ethyl-3-fluoroazetidin-1-yl)-2-oxoethyl)thieno[3,2-c]pyridin-4(5H)-one]	74
O=C(Cn1ccc2cccc(-c3ccc(Cl)c(C(F)(F)F)c3)c2c1=O)N1CCCC1 [Example 300, 8-(4-chloro-3-(trifluoromethyl)phenyl)-2-(2-oxo-2-(pyrrolidin-1-yl)ethyl)isoquinolin-1(2H)-one]	37

SMILES	Response Recovered (%)
CCC1(F)CN(C(=O)Cn2ccc3scc(-c4cnc(Cl)c(Cl)c4)c3c2=O)C1 [Example 75, 3-(5,6-dichloropyridin-3-yl)-5-(2-(3-ethyl-3-fluoroazetidin-1-yl)-2-oxoethyl)thieno[3,2-c]pyridin-4(5H)-one]	78
CCC1(F)CN(C(=O)Cn2ccc3scc(-c4cnc(F)c(F)c4)c3c2=O)C1 [Example 143, 3-(5,6-difluoropyridin-3-yl)-5-(2-(3-ethyl-3-fluoroazetidin-1-yl)-2-oxoethyl)thieno[3,2-c]pyridin-4(5H)-one]	15
Cc1cn(CC(=O)N2CCC(F)C2)c(=O)n2c(-c3ccc(Cl)c(Cl)c3)cnc12 (stereo not drawn) [Example 453, 3-(3,4-dichlorophenyl)-6-(2-(3-fluoropyrrolidin-1-yl)-2-oxoethyl)-8-methylimidazo[1,2-c]pyrimidin-5(6H)-one]	26
Cc1cn(CC(=O)N2CCC(F)C2)c(=O)n2c(-c3ccc(F)c(C(F)(F)F)c3)cnc12 (stereo not drawn) [Example 454, 3-(4-fluoro-3-(trifluoromethyl)phenyl)-6-(2-(3-fluoropyrrolidin-1-yl)-2-oxoethyl)-8-methylimidazo[1,2-c]pyrimidin-5(6H)-one]	35
CC1(F)CN(C(=O)Cn2ccc3c(c(-c4cnc(F)c(Cl)c4)cn3C3CC3)c2=O)C1 [Example 291, 3-(5-chloro-6-fluoropyridin-3-yl)-1-cyclopropyl-5-(2-(3-fluoro-3-methylazetidin-1-yl)-2-oxoethyl)-1H-pyrrolo[3,2-c]pyridin-4(5H)-one]	80
O=C(Cn1ccn2ccc(-c3ccc(F)c(Cl)c3)c2c1=O)N1CCCC1 [Example 392, 8-(3-chloro-4-fluorophenyl)-2-(2-oxo-2-(pyrrolidin-1-yl)ethyl)pyrrolo[1,2-a]pyrazin-1(2H)-one]	118
CC1(F)CN(C(=O)Cn2ccn3cnc(-c4ccc(Cl)c(Cl)c4)c3c2=O)C1 [Example 447, 1-(3,4-dichlorophenyl)-7-(2-(3-fluoro-3-methylazetidin-1-yl)-2-oxoethyl)imidazo[1,5-a]pyrazin-8(7H)-one]	58
O=C(Cn1cnc2[nH]cc(-c3ccc(Cl)cc3)c2c1=O)N1CCCC1 [Example 150, 5-(4-chlorophenyl)-3-(2-oxo-2-(pyrrolidin-1-yl)ethyl)-3H-pyrrolo[2,3-d]pyrimidin-4(7H)-one]	31
COCn1cc(-c2ccc(F)c(Cl)c2)c2c(=O)n(CC(=O)N3CCC(F)C3)ccc21 (stereo not drawn) [Example 246, 3-(3-chloro-4-fluorophenyl)-5-(2-(3-fluoropyrrolidin-1-yl)-2-oxoethyl)-1-(methoxymethyl)-1H-pyrrolo[3,2-c]pyridin-4(5H)-one]	34
CCC1(F)CN(C(=O)Cn2ccc3scc(-c4cnc(F)c(C)c4)c3c2=O)C1 [Example 88, 5-(2-(3-ethyl-3-fluoroazetidin-1-yl)-2-oxoethyl)-3-(6-fluoro-5-methylpyridin-3-yl)thieno[3,2-c]pyridin-4(5H)-one]	20
O=C(Cn1cnc2[nH]cc(-c3ccc(Cl)cc3)c2c1=O)N1CCCC1C(F)(F)F (stereo not drawn) [Example 152, 5-(4-chlorophenyl)-3-(2-oxo-2-(2-(trifluoromethyl)pyrrolidin-1-yl)ethyl)-3H-pyrrolo[2,3-d]pyrimidin-4(7H)-one]	10
Cc1cc(-c2csc3ccn(CC(=O)N4CC(F)(CF)C4)c(=O)c23)cnc1Cl [Example 86, 3-(6-chloro-5-methylpyridin-3-yl)-5-(2-(3-fluoro-3-(fluoromethyl)azetidin-1-yl)-2-oxoethyl)thieno[3,2-c]pyridin-4(5H)-one]	17
COCCn1cc(-c2ccc(Cl)c(F)c2)c2c(=O)n(CC(=O)N3CCCC3)cnc21 [Example 187, 5-(4-chloro-3-fluorophenyl)-7-(2-methoxyethyl)-3-(2-oxo-2-(pyrrolidin-1-yl)ethyl)-3H-pyrrolo[2,3-d]pyrimidin-4(7H)-one]	9
O=C(Cn1cnc2c(c(-c3ccc(Cl)c(C(F)(F)F)c3)cn2CCO)c1=O)N1CCCC1 [Example 194, 5-(4-chloro-3-(trifluoromethyl)phenyl)-7-(2-hydroxyethyl)-3-(2-oxo-2-(pyrrolidin-1-yl)ethyl)-3H-pyrrolo[2,3-d]pyrimidin-4(7H)-one]	2
CC1(O)CN(C(=O)Cn2ccc3scc(-c4ccc(F)c(Cl)c4)c3c2=O)C1 [Example 58, 3-(3-chloro-4-fluorophenyl)-5-(2-(3-hydroxy-3-methylazetidin-1-yl)-2-oxoethyl)thieno[3,2-c]pyridin-4(5H)-one]	10
O=C(Cn1ncc2scc(-c3ccc(Cl)c(F)c3)c2c1=O)N1CC(F)(F)C1 [Example 340, 3-(4-chloro-3-fluorophenyl)-5-(2-(3,3-difluoroazetidin-1-yl)-2-oxoethyl)thieno[2,3-d]pyridazin-4(5H)-one]	3
